In patent publication US20090170862A1, “USE OF C-KIT INHIBITORS FOR THE TREATMENT OF MYELOMA” (priority 2001, published 2009):

Tests used:
MM.1S cells [1] = conditions: for inhibition of proliferation of MM.1S cells: 24 h, dexamethasone 0.1 or 1 μM, PTK787 5 μM; for inhibition of proliferation of MM.1S cells / inhibition of MM.1S proliferation with IL-6: p<0.001; for inhibition of MM.1S proliferation without IL-6: comparison arm
Description: MM cells are first starved for 12 h in RPMI-1640 media containing 2% fetal bovine serum, and then plated into 96-well microtiter plates (Costar, Cambridge, Mass.), in the presence of drug or DMSO control. Experiments are also performed in the presence or absence of VEGF165 (R and D Systems). Proliferation is measured by the incorporation of [^3H]-thymidine (NEN Products, Boston, Mass.). Specifically, cells are pulsed with [^3H]-thymidine (0.5 μCi/well) for the last 6 h of 48 h cultures, harvested onto glass filters with an automatic cell harvester (Cambridge Technology, Cambridge, Mass.), and counted using a LKB Betaplate scintillation counter (Wallac, Gaithersburg, Md.). Measurement of cell viability is performed colorimetrically by MTS assay, utilizing the CellTiter96 AQueous One Solution Reagent (Promega, Madison, Wis.). Cells are exposed to the MTS for the last 2 h of 48 h cultures, and absorbance is measured using an ELISA plate reader (Molecular Devices Corp., Sunnyvale, Calif.) at OD of 570 nm.

MM.1S cells [2] = assay: Survival / cell death of MM.1S cells in the presence of dexamethasone and IL-6; format: cell-based, human; conditions: for inhibition of survival of MM.1S cells: 24 h, dexamethasone 0.1 or 1 μM, PTK787 5 μM, p<0.001
Description: MM.1S cells are incubated for 24 h in 1% RPMI, in the presence or absence of dexamethasone (0.1 or 1 μM), PTK787 (5 μM), IL-6 (20 and 100 ng/ml) and VEGF (50 ng/ml).

IL-6 = IL-6 levels in supernatants of MM.1S/BMSC co-culture (ELISA); conditions: MM.1S/BMSC co-culture supernatants, 48 h
Description: Cytokine levels are measured in supernatants from the co-culture system described above. VEGF and IL-6 concentrations are measured using commercially available ELISA kits (R&D Systems). Statistical significance of differences is determined using unpaired Student's t-test. The minimal level of significance is considered as p<0.05.
Supernatants obtained from a co-culture of MM.1S cells with BMSCs are isolated at 48 h, and IL-6 levels are measured using ELISA assay.

[3] = system: human carcinomas (A431, Ls174T, HT-29, PC-3); conditions: Cancer Res. 60: 2178, 2000, cited from earlier work
BMSCs = assay: Viability of BMSCs (trypan blue exclusion and MTS assay); format: cell-based, human; conditions: with PTK787 in the co-culture system
MM cell lines = assay: Proliferation of MM cell lines and patient tumor cells ([3H]-thymidine uptake); format: cell-based, human
Description: FIGS. 2 to 4. Dose-related effect of PTK787 on proliferation of MM cell lines and patient tumor cells. MM.1S, MM.1R, RPMI 8226, patient PCL cells, patient MM cells and HUVE cells were incubated in the presence of 0 (□), 1 (▪), 5 ( ? ), 10 ( ? ) and 20 ( ? ) μM of PTK787. In addition, HUVE cells are also exposed to 0.01 ( ? ), and 0.1 ( ? ) μM of drug. Proliferation is measured as a percentage of 3H-dT uptake relative to standard. The experiments are performed in triplicate, and standard deviation bars are shown.
RPMI 8226 and U266 human MM cell lines are obtained from the American Type Culture Collection (ATCC) of Rockville, Md. Patient derived MM cells are purified from patient BM samples, as described by Y. T. Tai, G. Teoh, Y. Shima, et al in J. Immunol. Methods 235:11, 2000. All human MM cell lines are cultured in RPMI-1640 media (Sigma Chemical, St. Louis, Mo.), containing 10% fetal bovine serum (FBS), 2 mmol/L L-glutamine (L-glut, GIBCO, Grand Island, N.Y.), 100 U/mL penicillin and […] streptomycin (P/S, GIBCO). MM patient cells are ≧95% CD38+, CD45RA−. Bone marrow stromal cells (BMSCs) are prepared from aspirates of MM patients as well as healthy donors as described by D. Gupta, S. Treon, Y. Shima, et al in Leukemia, 2001 and S. Gartner and H. S. Kaplan in Proc. Natl. Acad. Sci. USA 77:4756, 1980. […]

MM.1S cells [4] = assay: Proliferation of MM.1S cells in an adhesion co-culture system with BMSCs; format: cell-based, human; conditions: 5 μM, compared to controls, p<0.0001
Description: (§1) Co-culturing of MM.1S cells or patient PCL cells with BMSCs increases growth of tumor cells by 1.8 to 2.8-fold, compared to the combination of BMSCs and MM cells alone. Addition of PTK787 (5 μM) to this co-culture system decreases proliferation of both MM.1S cells and patient PCL cells by 75% (p<0.0001), when compared to controls. These effects are observed whether the BMSCs are derived from a normal donor or patient BM.

[5] = system: A431, Ls174T, HT-29, PC-3 tumor cells; conditions: cited from earlier work
MM.1S cells [6] = assay: Transwell cell migration assay (modified Boyden chamber); format: cell-based, human
Description: MM.1S cells are exposed to PTK787 at concentrations 0, 1, 5 and 10 μM for 4 h and then added to the upper chamber of a transwell system. To the lower wells are added either VEGF (□, 10 ng/ml) or CD40 (Δ, 10 ng/ml), and cells are allowed to migrate to the lower chamber over a 5 h period. A lower chamber without any VEGF or CD40 (∘) serves as a control. Migrated cells are counted on a Beckman Coulter counter, and a migration index is obtained as described in Example 2, below. Experiments are performed in triplicate, and standard deviation bars are shown.
The migration assay is performed in a modified Boyden chamber system; using a 24 well plate with 8 μm pore size inserts. Prior to the assay, the upper and lower chambers are pre-coated with fibronectin (10 μg/ml). MM.1S cells are starved in 2% RPMI media for 6 hours prior to assay, then treated with drug or DMSO control for 4 h. MM cells (2×10^6 cells/ml) are then placed into the upper chamber of the transwell system. To the lower chamber is added RPMI (1% FBS), 0 or 10 ng/ml of VEGF165, or an activating MoAb to CD40 (10 ng/ml). The plates are then incubated at 37° C. for 6 h, and then cells in the lower chamber are harvested. The number of live migrated cells is gated and measured using a Beckman Coulter counter. A migration index is calculated to compare migration of cells relative to control. The migration index is defined herein as the percentage of live migrated cells in the sample (with or without drug, and ±VEGF), divided by the percentage of live migrated cells in the control (no drug, no VEGF).

patient PCL cells = assay: Proliferation of patient PCL cells in an adhesion co-culture system with BMSCs; format: cell-based, human; conditions: 5 μM, compared to controls, p<0.0001
Description: as §1

MM.1S cells [7] = assay: Proliferation of MM cells in a modified Boyden chamber transwell co-culture system with BMSCs; format: cell-based, human; conditions: 5 μM; transwell co-culture with BMSCs without contact; 48 h; p<0.001
Description: Proliferation is measured in a modified Boyden chamber transwell system, using 24-well plates with a […] pore size inserts (Costar). BMSCs (4×10^4 cells/well) are plated in the lower chamber, starved, and incubated in drug as described above. MM cells (20×10^4 cells/ml) are then placed in the upper chamber (insert), and [^3H]-thymidine uptake in the individual chambers is measured at 48 h as described above.
MM.1 S cells are placed in the upper chamber of a transwell co-culture system in order to preclude direct contact between MM cells and BMSCs, but nonetheless allow for diffusion of humoral factors. Despite the lack of contact between the two cell types, uptake of [^3H]-dT by MM.1S cells incubated with BMSCs is increased by 2.2-fold (p<0.0001) at 48 h. […] When PTK787 (5 μM) is used in this co-culture system, it reduces proliferation of MM.1S cells by 62% (p<0.001).

Compound	inhibition of proliferation of MM.1S cells (MM.1S cells [1]) [%]	inhibition of MM.1S proliferation with IL-6 (MM.1S cells [1]) [%]	inhibition of MM.1S proliferation without IL-6 (MM.1S cells [1]) [%]	inhibition of survival of MM.1S cells (MM.1S cells [2]) [%]	decrease of IL-6 concentrations (IL-6) [%]	cell death of MM.1S cells without IL-6 (MM.1S cells [2]; PTK787 alone, second value of '54% vs. 65%') [%]	cell death of MM.1S cells with IL-6 (MM.1S cells [2]; PTK787 plus IL-6, first value of '54% vs. 65%', p<0.01) [%]	growth of human carcinomas transplanted orthotopically into mice ([3]; A431, Ls174T, HT-29, PC-3)	vessel density in the tumor tissues [3]	viability of BMSCs (BMSCs) [%]	proliferation of MM.1S, Dex-resistant MM.1R, RPMI, patient PCL and patient MM cells (MM cell lines; 0-20 μM PTK787, 3H-dT uptake)	proliferation in MM cell lines with or without VEGF (MM cell lines; PTK787 (1 to 5 μM), presence or absence of VEGF)	decrease of proliferation of MM.1S cells (MM.1S cells [4]) [%]	direct effect on tumor cells [5]	VEGF-induced migration of MM.1S cells (MM.1S cells [6]; 1 μM PTK787, VEGF 10 ng/ml, p=0.002)	baseline and VEGF-induced migration of MM.1S cells (MM.1S cells [6]; 5 and 10 μM PTK787)	migration of MM.1S cells induced by CD40 (MM.1S cells [6]; activating MoAb to CD40 10 ng/ml)	decrease of proliferation of patient PCL cells (patient PCL cells) [%]	reduction of proliferation of MM.1S cells (MM.1S cells [7]) [%]
C[C@@H]1C[C@H]2[C@@H]3CCC4=CC(=O)C=C[C@]4(C)[C@@]3(F)[C@@H](O)C[C@]2(C)[C@@]1(O)C(=O)CO [Dexamethasone, dexamethasone, reference compound]	58	16	70.5	83															
Clc1ccc(Nc2nnc(Cc3ccncc3)c3ccccc23)cc1 [PTK787]	35	64.7	39.3	46	70	65	54	inhibits the growth	does reduce vessel density	95	decreases, in a dose dependent manner	abrogates proliferation both in the presence or absence of VEGF	75	does not have a direct effect	reduced to baseline levels	further reduces	does not significantly inhibit	75	62
